“And” between values parts separate entries of the source, which are not always exact repeats. Equal values may be shown once. Read-outs that look alike come from different tables or passages of the source.
Test system: Tetrabenazine-Induced Ptosis
Assay: Blockade of Tetrabenazine-Induced Ptosis in Mice (anti-tetrabenazine test)
Assay type: in vivo, mice (ICR-DUB strain)
Conditions: for ED50: Mus musculus, ip, read-out: ED50 (95% Confidence Limits), blockade of tetrabenazine-induced ptosis
Procedure: Antidepressant agents block many of the behavioral and physiological effects of tetrabenazine and reserpine, such as motor depression, hypothermia, and ptosis. […] Thirty minutes later the presence or absence of complete eyelid closure (ptosis) is assessed in each animal. For compounds which produced blockage of ptosis in all animals, and ED50 value is obtained using a minimum of three geometrically spaced doses with five mice/dose.

[1] = mice, IP, 30 minutes prior to tetrabenazine 32 mg/kg IP, ptosis assessed thirty minutes later, probit analysis, 95% confidence limits

With `CN(C)CCCN1c2ccccc2CCc2ccccc21` [imipramine] the ED50 [1] was 0.3 mg/kg and the “ED50 (95% Confidence Limits), blockade of tetrabenazine-induced ptosis” value [1] was 0.4 (0.2-0.9) mg/kg IP and 0.5 (0.2-1.2) mg/kg IP.

Compound `CCOc1ccccc1OCC1CNCCO1` (stereo not drawn) [viloxazine] has an ED50 of 1.5 mg/kg.

Reference: patent US4260606A, “3-Methyleneazetidine derivatives” (A. H. Robins Company, Inc., priority 1979, dated 1981)
